According to PubChem BioAssay AID248 (DTP/NCI, 2004):
Values joined by “and” are separate entries in the source; they are usually repeats but may differ in a detail not shown here. Equal values may be shown once. Inconclusive results and toxic doses are left out. No stated cut-off is given here; in the data, active means T/C of 150% or more; inactive means T/C below 125%.

System: L1210 leukemia ip in BDF1 mice, survival T/C
Assay: NCI In Vivo Anticancer Drug Screen. Data for tumor model L1210 Leukemia (intraperitoneal) in B6D2F1 (BDF1) mice
Conditions: endpoint: mean survival time, higher = longer survival
Method in brief: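 Survival endpoint. Drug-treated group vs vehicle group, expressed as T divided by C. Tumor passaged by transplantation.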

[1] = dose: 100.0 mg/kg/injection, schedule: Q04DX003 (ip), vehicle: saline with Tween-80
[2] = dose: 200.0 mg/kg/injection, schedule: Q04DX003 (ip), vehicle: saline with Tween-80
[3] = dose: 400.0 mg/kg/injection, schedule: Q04DX003 (ip), vehicle: saline with Tween-80

Measured: T/C

CC(=O)CC(C)=Nc1cccc(Cl)c1
inactive: dose: 100.0 mg/kg/injection, schedule: Q01DX001 (ip), vehicle: Klucel (hydroxypropylcellulose) (HPC) 106 % of control | dose: 100.0 mg/kg/injection, schedule: Q01DX009 (ip), vehicle: Klucel (hydroxypropylcellulose) (HPC) 92 % of control | dose: 200.0 mg/kg/injection, schedule: Q01DX001 (ip), vehicle: Klucel (hydroxypropylcellulose) (HPC) 103 % of control | dose: 200.0 mg/kg/injection, schedule: Q01DX009 (ip), vehicle: Klucel (hydroxypropylcellulose) (HPC) 108 % of control | dose: 400.0 mg/kg/injection, schedule: Q01DX001 (ip), vehicle: Klucel (hydroxypropylcellulose) (HPC) 100 % of control | dose: 400.0 mg/kg/injection, schedule: Q01DX009 (ip), vehicle: Klucel (hydroxypropylcellulose) (HPC) 94 % of control

OC1CCCC/C1=C/C=C/c1ccccc1 (configuration not stated)
inactive: [1] 89 % of control and 97 % of control | [2] 92 % of control | [3] 90 % of control and 94 % of control

O=S(=O)(O)c1ccc(CCCCCCl)cc1
inactive: dose: 100.0 mg/kg/injection, schedule: Q01DX009 (ip), vehicle: saline sonified 107 % of control | dose: 100.0 mg/kg/injection, schedule: Q04DX003 (ip), vehicle: saline 95 % of control | dose: 200.0 mg/kg/injection, schedule: Q01DX009 (ip), vehicle: saline sonified 98 % of control | dose: 200.0 mg/kg/injection, schedule: Q04DX003 (ip), vehicle: saline 100 % of control | dose: 400.0 mg/kg/injection, schedule: Q01DX009 (ip), vehicle: saline sonified 101 % of control | dose: 400.0 mg/kg/injection, schedule: Q04DX003 (ip), vehicle: saline 96 % of control

O=C1C(N2CCCC2)=C(N2CC2)C(=O)C(N2CCCC2)=C1N1CC1
inactive: dose: 0.25 mg/kg/injection, schedule: Q01DX009 (ip), vehicle: saline 94 % of control and 119 % of control | dose: 0.39 mg/kg/injection, schedule: Q04DX003 (ip), vehicle: saline 108 % of control | dose: 0.5 mg/kg/injection, schedule: Q01DX009 (ip), vehicle: saline 101 % of control and 103 % of control | dose: 0.78 mg/kg/injection, schedule: Q04DX003 (ip), vehicle: saline 96 % of control | dose: 1.0 mg/kg/injection, schedule: Q01DX009 (ip), vehicle: saline 106 % of control and 118 % of control | dose: 1.56 mg/kg/injection, schedule: Q04DX003 (ip), vehicle: saline 115 % of control | dose: 2.0 mg/kg/injection, schedule: Q01DX001 (ip), vehicle: saline 108 % of control | dose: 2.0 mg/kg/injection, schedule: Q01DX009 (ip), vehicle: saline 121 % of control and 124 % of control | dose: 4.0 mg/kg/injection, schedule: Q01DX001 (ip), vehicle: saline 97 % of control | dose: 8.0 mg/kg/injection, schedule: Q01DX001 (ip), vehicle: saline 87 % of control | dose: 12.5 mg/kg/injection, schedule: Q04DX003 (ip), vehicle: saline 92 % of control

CC1(C)NC(C(=O)O)CS1 (configuration not stated)
inactive: dose: 100.0 mg/kg/injection, schedule: Q01DX001 (ip), vehicle: saline 101 % of control | dose: 200.0 mg/kg/injection, schedule: Q01DX001 (ip), vehicle: saline 90 % of control | dose: 400.0 mg/kg/injection, schedule: Q01DX001 (ip), vehicle: saline 95 % of control

c1ccc([Si](c2ccccc2)(c2ccccc2)c2ccc([Si](c3ccccc3)(c3ccccc3)c3ccccc3)cc2)cc1
inactive: dose: 100.0 mg/kg/injection, schedule: Q01DX009 (ip), vehicle: saline with Tween-80 95 % of control | [1] 103 % of control | dose: 200.0 mg/kg/injection, schedule: Q01DX009 (ip), vehicle: saline with Tween-80 92 % of control | [2] 90 % of control | dose: 400.0 mg/kg/injection, schedule: Q01DX009 (ip), vehicle: saline with Tween-80 90 % of control | [3] 106 % of control

O=CC1=C(Cl)c2ccccc2SC1
inactive: dose: 100.0 mg/kg/injection, schedule: Q01DX001 (ip), vehicle: other 93 % of control | dose: 200.0 mg/kg/injection, schedule: Q01DX001 (ip), vehicle: other 98 % of control
